Data reported in patent US10329258B2, “CGAS in systemic lupus erythematosus (SLE)” (UNIVERSITY OF WASHINGTON, priority 2015, dated 2019).
Entries after “also recorded” stand apart in the source; their conditions may differ. Where two headings read alike, the source gives them in different places.

Columns and labels:
[1] = target: T1, cGAS (Homo sapiens, UniProt Q8N884); experiment: cGAS activity assay: cGAMP production quantified by TLC (IC50 Enzyme Assay); type: biochemical; settings: for inhibitory activity on cGAMP production, in words: TLC, FIG. 2C
T1 construct: made in house; host or cells: E. coli Rosetta BL21 pLysS
Experimental: HCQ belongs to a family of antimalarial drugs that share the structure of aminoquinolines. To rapidly screen these antimalarial drugs for their ability to interfere with cGAS activation by ds-DNA, we performed dose titration experiments with drug and quantified cGAMP production using thin layer chromatography (TLC) (FIG. 2A). Reactions were performed in triplicate and normalized to no-inhibitor controls and fit by non-linear regression using Prism […]™ to determine the IC50 of each compound. Each compound yielded dose-response curves similar to HCQ but with different inhibitory activities (FIG. 2B). […] Strikingly, the computational predicted binding affinities of these anti-malaria drugs inversely correlated with the IC50 of anti-malarial drugs, validating the prediction of our computational analysis (FIG. 2D).
Initial characterization of enzyme activity was monitored in the presence of 250 μM ATP, 250 μM GTP, 0-500 μg/mL herring testes DNA, 1.4 μM cGAS, 3.3 nM ^32P-γ-ATP in a buffer composed of 40 mM Tris, 250 mM NaCl, 10 mM MgCl2, pH 7.5. Reactions were incubated for 1 hr at room temperature and subsequently spotted on PEI-cellulose TLC plates and developed using a solvent composition 1:1.5 [v/v] saturated NH4SO4 and 1.5 M KH2PO4 [pH 3.6]. For inhibition assays, compounds were characterized in the presence of the above reaction contents at fixed 100 μg/mL htDNA. TLC plates were exposed to a phosphor-storage screen and imaged using a TYPHOON™ imaging system. (See FIGS. 7-16).
cGAS activity was monitored in the presence of 250 μM ATP, 250 μM GTP, 0-500 μg/ml herring testes DNA. 1.4 μM cGAS. and 3.3 nM [^32P]-ATP in Tris buffer (pH 7.5). After incubation for 1 h at room temperature, samples were spotted on PEI-cellulose Thin Layer Chromatograph (TLC) plates, and developed using a solvent composed of 1:1.5 [v/v] saturated NH4SO4 and 1.5 M KH2PO4 [pH 3.6]. For inhibition assays, compounds were characterized in the presence of the above reaction contents at fixed 100 μg/ml HT DNA. TLC plates were exposed to a phosphor-storage screen and imaged using a TYPHOOON™ imaging system. (FIG. 7).
Thin Layer Chromatograph (TLC) assay was used for the quantification of cGAS inhibition by compounds X5/X6/X7. Reactions were normalized to no-inhibitor controls and fit by non-linear regression using Prizm […]™ to determine the IC50 of each compound. (FIG. 7).

[2] = system: IFNb production by THP1 cells; experiment: IFNb expression by QPCR in THP1 cells transfected with herring testis DNA; type: cell-based; settings: for IC50: Homo sapiens, read-out: IC50 of inhibition of IFNb production by THP1 cells; for inhibition of IFNb production, effectiveness in words: THP1 cells transfected with DNA, compared with Quinacrine, AMCA, HCQ, Chloroquine
From the text: Systemic Lupus Erythematosus (SLE) is strongly associated with increased expression of type I interferon (IFN-I) (Elkon, 2012). Both genetic as well as experimental studies indicate that IFN-I plays a central role in this disease (Lovgren, 2006) (Niewold, 2007). To determine the physiological relevance of our computational analysis and in vitro observance, we examined whether antimalarial drugs could inhibit IFNb production within the cell. […] Using this approach, we transfected THP1 cells with DNA in the presence or absence of antimalarial compounds and quantified IFNb expression by QPCR.
THP1 cells (0.2×10^6) were transfected with 0.5 ug herring testis DNA using Lipofectamine 2000 (Invitrogen) according to the manufacture's instruction. Before transfection, THP1 cells were incubated with different concentration of Hydroxychloroquine or other antimalarial drugs (100, 50, 25, 12.5 μM) for 5 minutes. Cells were stimulated for 16 hours and then harvested for RNA extraction.
Total RNA was isolated from THP1 cells using the RNeasy mini kit (Qiagen, Valencia, Calif.). cDNA was synthesized using 100 ng RNA with the high-capacity cDNA RT-KIT™ using random primers (Applied Biosystems, Foster City, Calif.). Reactions in duplicate were run on an ABI STEPONE PLUS™ using the primers from Qiagen (primer catalog number): a two-stage cycle of 95° C. for 15 s and 60° C. for 1 min was repeated for 40 cycles followed by a dissociation stage. Threshold cycle values were set as a constant threshold at 0.2, and fold changes in gene expression were then calculated using the 2^−ΔΔ^CT method.

[3] = system: 3 cell lines; experiment: Toxicity, average of 3 cell lines @ 50% cell death; type: cell-based
[4] = target: STING (Homo sapiens, UniProt Q86WV6); experiment: Binding of 32P-c-di-AMP by STING in the presence of HCQ; settings: 32P-c-di-AMP (2 nM), STING (170 μM), different HCQ concentrations
[5] = target: T2, dsDNA/cGAS complex (Homo sapiens, UniProt Q8N884); experiment: Electrophoretic mobility shift assay (EMSA) of dsDNA (ISD) binding to cGAS; settings: 0.2 μM ISD, 1.5 μM cGAS, HCQ 0.075~5 mM
T2 construct: made in house; host or cells: E. coli Rosetta BL21 pLysS
From the text: To determine whether these anti-malarial drugs could inhibit DNA binding to cGAS in vitro, we performed DNA binding studies by the electrophoretic mobility shift assay (EMSA). As previously shown, addition of increasing concentrations of cGAS to a constant concentration of ds DNA (ISD), results in the protein retarding migration of ISD on the gel (‘gel shift’) and less free DNA (FIG. 1, left panel). To test whether HCQ as a model antimalarial could attenuate the gel shift, we used constant concentrations of both ISD and cGAS (FIG. 1, right panel) in the presence of increasing concentrations of HCQ. As shown, increasing the concentration of HCQ reduced the gel shift caused by the formation of dsDNA/cGAS complexes and led to increasing free DNA at the bottom of the gel. […] Inhibition of formation of dsDNA/cGAS higher order complexes by antimalarial drugs are especially interesting and important since cGAS is activated by dsDNA induced oligomerization and dsDNA/cGAS complex formation is required for cGAS activation.
Electrophoretic mobility shift assay (EMSAs) were performed to measure the DNA-binding ability with or without HCQ in vitro. […] The mixtures were resolved on 1% agarose gel using 1×TBE electrophoresis buffer of at constant voltage of 100 V. The gel was analyzed by using a fluorescence-based EMSA kit (Molecular Probes) according to the manufacturer's protocol. […]

[6] = system: THP1 cells; experiment: PolyIC Lipofectamine transfection of THP1 cells, IL-1b by ELISA; type: cell-based; settings: PolyIC transfected THP1 cells, different concentration of HCQ
From the text: PolyIC was transfected by Lipofectamine to THP1 cells with different concentration of HCQ.

[7] = cGAS, fixed 100 μg/mL herring testes DNA, TLC of cGAMP, read-out: IC50 Enzyme Assay
[8] = THP-1, THP1 cells transfected with herring testis DNA, 16 hours, QPCR

T1 sequence (Q8N884 whole entry, species assumed): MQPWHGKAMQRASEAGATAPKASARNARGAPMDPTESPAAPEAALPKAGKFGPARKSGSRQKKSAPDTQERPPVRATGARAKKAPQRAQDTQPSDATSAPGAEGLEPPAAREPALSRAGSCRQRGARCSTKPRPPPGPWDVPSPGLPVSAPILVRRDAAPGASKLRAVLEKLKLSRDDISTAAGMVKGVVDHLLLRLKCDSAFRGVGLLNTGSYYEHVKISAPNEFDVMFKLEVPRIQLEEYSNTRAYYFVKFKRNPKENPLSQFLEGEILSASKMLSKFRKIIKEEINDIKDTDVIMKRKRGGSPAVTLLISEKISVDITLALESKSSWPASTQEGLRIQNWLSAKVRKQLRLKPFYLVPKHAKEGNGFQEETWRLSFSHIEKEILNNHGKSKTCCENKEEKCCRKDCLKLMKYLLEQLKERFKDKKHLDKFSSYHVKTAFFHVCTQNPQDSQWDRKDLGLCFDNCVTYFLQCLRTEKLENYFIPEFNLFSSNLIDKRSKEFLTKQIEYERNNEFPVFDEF
T2 sequence (Q8N884 whole entry, species assumed, one chain of several): as the sequence (Q8N884 whole entry, species assumed) above
Sequence of STING (Q86WV6 whole entry H232R, species assumed): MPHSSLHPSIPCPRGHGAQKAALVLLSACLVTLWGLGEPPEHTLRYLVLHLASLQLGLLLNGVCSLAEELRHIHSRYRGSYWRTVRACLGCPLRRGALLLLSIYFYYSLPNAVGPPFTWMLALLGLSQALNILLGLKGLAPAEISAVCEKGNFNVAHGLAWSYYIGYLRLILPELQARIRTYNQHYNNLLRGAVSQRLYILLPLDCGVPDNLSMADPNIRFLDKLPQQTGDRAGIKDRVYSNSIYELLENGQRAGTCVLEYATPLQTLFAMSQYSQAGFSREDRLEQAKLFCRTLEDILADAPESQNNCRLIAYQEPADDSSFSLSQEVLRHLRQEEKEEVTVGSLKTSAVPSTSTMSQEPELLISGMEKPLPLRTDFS

Structure (SMILES)	IC50 [1, 7] [µM]	inhibitory activity on cGAMP production, in words [1]	also measured
CCN(CC)CCCC(C)Nc1c2ccc(Cl)cc2nc2ccc(OC)cc12 (stereo not drawn) [Quinacrine, quinacrine]	–	relatively potent inhibitors	IC50 [2, 8]: 3 to 25 µM
C=C[C@H]1CN2CC[C@H]1C[C@H]2[C@H](O)c1ccnc2ccc(OC)cc12 [compound 5, Quinine]	2000	very low inhibitory activity	inhibition of IFNb production, effectiveness in words [2]: less effective by about one log order
COc1cc(NC(C)CCCN)c2ncccc2c1 (stereo not drawn) [compound 3, Primaquine]	850	very low inhibitory activity	inhibition of IFNb production, effectiveness in words [2]: less effective by about one log order
CCN(CCO)CCCC(C)Nc1ccnc2cc(Cl)ccc12 (stereo not drawn) [compound 1, hydroxychloroquine]	350	–	–
CCN(CC)CCCC(C)Nc1c2ccc(Cl)cc2nc2ccc(OC)cc12 (stereo not drawn) [compound 4, quinacrine]	13	–	Toxicity [3]: 33.0 µM
CCOc1ccc2nc3cc(N)ccc3c(N)c2c1 [compound 7]	10	–	–
O=C(O)[C@H](Cc1c[nH]c2ccccc12)Nc1c2ccccc2nc2ccccc12 [compound 9]	> 650	–	–
COc1ccc2nc3cc(Cl)ccc3c(N)c2c1 [compound 6, 9-amino-6-chloro-2-methoxyacridine]	–	relatively potent inhibitors	IC50 [1]: 32 µM; IC50 ([2]; THP-1, 16 h): 3 to 25 µM
CCN(CCO)CCCC(C)Nc1ccnc2cc(Cl)ccc12 (stereo not drawn) [HCQ, hydroxychloroquine]	–	intermediate inhibitory activities	effect on c-di-AMP binding to STING [4]: not c-di-AMP to STING; effect on dsDNA/cGAS binding (gel shift) [5]: blocked dsDNA/cGAS binding; also recorded: inhibits the DNA binding to cGAS; effect on Lipofectamine transfection efficiency (IL-1b production) [6]: did not interfere with the Lipofectamine transfection efficiency; IC50 [2, 8]: 3 to 25 µM
Nc1c2ccccc2nc2ccccc12 [compound 8]	5	–	–
CCN(CC)CCCC(C)Nc1ccnc2cc(Cl)ccc12 (stereo not drawn) [compound 2, Chloroquine]	850	intermediate inhibitory activities	IC50 ([2]; THP-1, 16 h): 3 to 25 µM
CCOC(=O)c1ccc(Nc2c3ccccc3nc3ccccc23)cc1 [compound 10]	> 650	–	–

The next lines start with results.

IC50 [1, 7] [µM]	inhibitory activity on cGAMP production, in words [1]	Structure (SMILES)	also measured
35	–	COc1ccc2nc3cc(N)ccc3c(N(C)CCCN(C)Cc3ccco3)c2c1 [compound 15, 9-(N-furfuryl-N-methyl-N′-methyl-1′,3′-propanediamine)-3-amino-7-methoxyacridine]	–
23	–	COc1ccc2nc3cc(N)ccc3c(N(C)CCCN(C)Cc3ccncc3)c2c1 [compound 14]	Toxicity [3]: 27.4 µM
8	–	CN(C)c1ccc2cc3ccc(N(C)C)cc3nc2c1 [compound 20]	–
> 650	–	COc1cc(NS(C)(=O)=O)ccc1Nc1c2ccccc2nc2ccccc12 [compound 12]	–
18	–	COc1ccc2nc3cc(N)ccc3c(N(C)CCCN(C)Cc3ccccc3)c2c1 [compound 13, 9-(N-benzyl-N-methyl-N′-methyl-1′,3′-propanediamine)-3-amino-7-methoxyacridine]	Toxicity [3]: 33.1 µM
> 650	–	O=[N+]([O-])c1cccc(Nc2c3ccccc3nc3ccccc23)c1 [compound 11]	–
1	–	NCCCCNc1c2ccccc2nc2ccccc12 [compound 21]	Toxicity [3]: 16.0 µM
